According to patent publication US11033544B2, “Low-dose triple combination formulation” (THE GEORGE INSTITUTE FOR GLOBAL HEALTH, priority 2019, dated 2021):
Entries after “also recorded” stand apart in the source; their conditions may differ.

What was measured:
Type in all cases: in vivo
[1] = system: Zucker Diabetic Fatty (ZDF) rats; test: Plasma insulin in the Zucker rat model of diet induced diabetes, 21 days of treatment
Text: (§1) Study Design: • Zucker rat model of diet induced diabetes (Zucker Diabetic Fatty Rats) • Parallel randomized study • 10 animals in each of 4 treatment groups • 21 days of treatment
(§2) Main Study Outcomes: • Glucose (measured at multiple time points before and during treatment) • HbA1c (before and at the end of the treatment period) • Insulin (before and at the end of the treatment period) • Creatinine (before and at the end of the treatment period)
(§3) Ten Zucker Diabetic Fatty (ZDF) rats were randomly allocated to each of the four different treatment groups (Table 6). Whole blood glucose measurements were made from 4 days before dosing, then daily until for 8 days, then at reduced frequency. Measurements of HbA1c and creatinine were made the day prior to dosing, then at days 9 and 21. Insulin measurements were made the day prior to dosing then on day 20. A clinical chemistry sample from one animal in the vehicle group on day 9 was not available so there is a missing measurement for creatinine and HbA1c on that day
For Insulin, a baseline measure and a measurement at day 20 was available, so the ANCOVA approach (linear regression with the baseline value as a covariate) was used to test for differences in this measurement between treatments. The interaction between baseline value and treatment was tested but there was no evidence of an interaction, therefore the main effects were retained.
(§4) To test for robustness of the linear mixed model and ANCOVA models a bootstrapped 95% CI (percentile method) for the weighted marginal mean of measurements across the entire study period or single outcome measurement using 2000 replicates was estimated. The bootstrap sampling was done on individual animal (using complete measurements), with stratification by treatment type.

[2] = system: Zucker Diabetic Fatty (ZDF) rats; test: Serum creatinine in the Zucker rat model of diet induced diabetes, 21 days of treatment
Text: as §1, §2, §3
(§5) Whole blood glucose, HbA1c and Creatinine were each analyzed using a linear mixed mode (proc mixed in SAS/STAT 14.2). For WBC, unstructured, autoregressive, exchangeable and Toeplitz correlation structures for repeated measurements across the study were compared using Akaike Information Criterion and Bayesian Information Criterion. The Toeplitz correlation structure was selected as the best fitting structure. For HbA1c and Creatinine an exchangeable structure was used as there were only two measurements. Denominator degrees of freedom were calculated using the between-within subject method. The model included coefficients for baseline measurement (the closest measurement preceding dosing), type of drug treatment, time and an interaction between drug treatment and time. Marginal means (with 95% confidence intervals) for the measurement at each period for each drug were estimated, and an overall marginal mean (with 95% confidence interval) for measurements across time was estimated using weights that reflect the differing amounts of time in each measurement period (assuming each measurement represented all time since the preceding measurement). A likelihood ratio test of overall differences between treatment was initially used, if significant (p<0.05) then we tested for differences between each combination of treatments.
as §4

[3] = system: Zucker Diabetic Fatty (ZDF) rats; test: HbA1c in the Zucker rat model of diet induced diabetes, 21 days of treatment
Text: as §1, §2, §3, §5, §4

[4] = system: Zucker Diabetic Fatty (ZDF) rats; test: Whole blood glucose in the Zucker rat model of diet induced diabetes, 21 days of treatment
Text: as §1, §2, §3, §5, §4

[5] = whole study period, bootstrapped 95% CI, 2000 replicates

CN(C)C(=N)N=C(N)N [Composition 1K-MET, Metformin]
Insulin levels relative to the control group / vehicle ([1]; day 20): no evidence of a difference; also recorded: essentially no difference | Insulin, Overall level in WBG after dosing, Estimate (95% CI) ([1]; day 20, ANCOVA with baseline as covariate): 3879 (2757-5001) pg/mL | Insulin, bootstrap median and confidence interval ([1]; day 20, bootstrapped 95% CI, 2000 replicates): 3867 (2914-4874) pg/m | Insulin, pairwise comparison Vehicle vs treatment, Estimate (95% CI) ([1]; day 20, difference = treatment minus vehicle): 932 (−660-2524) pg/mL | Creatinine relative to the control group ([2]; 21 days of treatment): essentially no difference | Creatinine, pairwise comparison Vehicle vs treatment, Estimate (95% CI) ([2]; serum, days 9 and 21, difference = treatment minus vehicle): 0.01 (−0.01-0.03) mg/dL | Creatinine, Overall level in WBG after dosing, Estimate (95% CI) ([2]; serum, days 9 and 21, marginal mean, linear mixed model): 0.79 (0.77-0.80) mg/dL | Creatinine, bootstrap median and confidence interval [2, 5]: 0.79 (0.77-0.80) mg/dL | HbA1c relative to the control group ([3]; 21 days of treatment): essentially no difference | HbA1c, pairwise comparison Vehicle vs treatment, Estimate (95% CI) ([3]; days 9 and 21, difference = treatment minus vehicle): −0.35 (−0.68-−0.01) % | HbA1c, overall level after dosing, estimate (95% CI) ([3]; measurements at days 9 and 21, marginal mean, linear mixed model): 6.52 (6.29-6.75) % | HbA1c, bootstrap median and confidence interval [3, 5]: 6.53 (6.24-6.82) % | WBG relative to the control group ([4]; 21 days of treatment): essentially no difference | Whole blood glucose, pairwise comparison Vehicle vs treatment, Estimate (95% CI) ([4]; days 1-21, difference = treatment minus vehicle): 24.4 (−5.2-53.9) mg/dL | Overall level in WBG after dosing, Estimate (95% CI) ([4]; non-fasting whole blood glucose, time-weighted marginal mean over days 1-21 post-dosing, linear mixed model): 442.7 (421.8-463.5) mg/dL | Whole blood glucose, bootstrap median and confidence interval [4, 5]: 443.4 (419.8-465.0) mg/dL
